Reference: patent US20140349941A1, “AROMATIC-CATIONIC PEPTIDES AND USES OF SAME” (Cornell University, priority 2011, published 2014)

Assays:
cyt c heme = cyt c heme (Homo sapiens, UniProt P99999); assay: Circular dichroism of cyt c Soret band; type: binding; conditions: negative peak at 415 nm without peptide; FIG. 4
Experimental: Circular dichroism (Olis spectropolarimeter, DSM20) was carried out to monitor Soret band (negative peak at 415 nm), as a probe for the π-π* heme environment in cyt c (FIG. 4). […] The increase in π-π* interaction around the heme would enhance electron tunneling which would be favorable for electron diffusion.

[1] = system: isolated rat kidney mitochondria; assay: O2 consumption of isolated rat kidney mitochondria (Oxygraph); type: biochemical
Experimental: (§1) Fresh mitochondria were isolated from rat kidney as described previously. Electron flux was measured by O2 consumption (Oxygraph Clark electrode) as previously described using different substrates for C1 (glutamate/malate), C2 (succinate), and C3 (TMPD/ascorbate). Assays were carried out under low substrate conditions in order to avoid saturating the enzyme reactions. ATP production in isolated mitochondria was determined kinetically using the luciferase method (Biotherma) in a 96-well luminescence plate reader (Molecular Devices). The initial maximal rate for ATP synthesis was determined over the first minute.
Oxygen consumption of isolated rat kidney mitochondria was determined using the Oxygraph (FIG. 5). Rates of respiration were measured in the presence of different concentrations of SS-31 in state 2 (400 μM ADP only), state 3 (400 μM ADP and 500 μM substrates) and state 4 (substrates only). All experiments were done in triplicate with n=4-7.
(§2) SS-20 or SS-31 was added at 100 μM concentrations to isolated mitochondria in respiration buffer containing 0.5 mM succinate (complex II substrate) and 400 μM ADP. Similar increases in O2 consumption were observed when low concentrations of complex I substrates (glutamate/malate) were used (data not shown).
SS-20 or SS-31 was added at 10 μM or 100 μM concentrations to isolated mitochondria in respiration buffer containing glutamate/malate (complex I substrate), 0.5 mM succinate (complex II substrate) or 3 μM TMPD/1 mM ascorbate (direct reductant of cyt C). 400 μM ADP was added to initiate State 3 respiration.

isolated mitochondria = assay: ATP synthesis in isolated mitochondria; type: biochemical, rat
Experimental: as §1
The rate of mitochondrial ATP synthesis was determined by measuring ATP in respiration buffer collected from isolated mitochondria 1 min after addition of […] (FIG. 6). ATP was assayed by HPLC. All experiments were carried out in triplicate, with n=3.
as §2
Increase in electron flux in the electron transport chain can either result in increase in ATP synthesis or increase in electron leak and generation of free radicals. ATP synthesis in isolated mitochondria was assayed by HPLC.

cytochrome c (with CL) = cytochrome c (with CL) (Homo sapiens, UniProt P99999); assay: Cytochrome c reduction inhibited by CL; type: biochemical
cytochrome c (with CL), sequence (P99999 2-105 limits assumed, species assumed): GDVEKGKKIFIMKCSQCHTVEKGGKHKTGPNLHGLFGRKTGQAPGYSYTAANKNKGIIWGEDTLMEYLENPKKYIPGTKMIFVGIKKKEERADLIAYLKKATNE
Experimental: Cytochrome c is a carrier of electrons between respiratory complex III and IV in mitochondria. Cytochrome c is reduced (Fe^2+) after it accepts an electron from cytochrome c reductase, and it is then oxidized to Fe^3+ by cytochrome c oxidase.
Reduction of cytochrome c (20 μM) was induced by the addition of glutathione (500 μM) in the absence or presence of CL (100 μg/ml) (FIG. 25A). Reduction of cytochrome c was monitored by absorbance at 550 nm using a 96-well UV-VIS plate reader (Molecular Devices). Addition of CL decreased the rate of cytochrome c reduction by half.

cytochrome c-CL complex = cytochrome c-CL complex (Homo sapiens, UniProt P99999); assay: Cytochrome c/CL peroxidase activity (amplex red); type: biochemical
cytochrome c-CL complex, sequence (P99999 2-105 limits assumed, species assumed, one chain of several): as the sequence (P99999 2-105 limits assumed, species assumed) above
Source text: (§3) The six coordination of the heme in cytochrome c prevents direct interaction of H2O2 with the catalytic metal site, and native cytochrome c in solution is a poor peroxidase. Upon interaction with CL, cytochrome c undergoes a structural change with rupture of the Fe-Met80 coordination. […] The mechanism of action of cytochrome c peroxidase is similar to that of other peroxidases, such as horse radish peroxidase (HRP). Thus it is possible to use the amplex red-HRP reaction to investigate cytochrome c peroxidase activity. In the presence of peroxidase, amplex red (AR) reacts with H2O2 to form the red-fluorescent oxidation product, resorufin (Ex/Em=571/585).
Cytochrome c (2 μM) was mixed with CL (25 μg/ml) and 10 μM H2O2 in 20 mM HEPES, pH 7.4. Amplex red (50 μM) was then added and fluorescence emission monitored in real time using Hitachi F4500 fluorescence spectrophotometer. Addition of amplex red elicited rapid increase in fluorescence signal due to resorufin formation, providing direct evidence for peroxidase activity of cytochrome c/CL complex (FIG. 29A).

[2] = target: T1, horse radish peroxidase (HRP) (Armoracia rusticana, UniProt P00433); assay: HRP activity (amplex red); type: biochemical; conditions: data not shown
T1 sequence (P00433 31-338 limits assumed): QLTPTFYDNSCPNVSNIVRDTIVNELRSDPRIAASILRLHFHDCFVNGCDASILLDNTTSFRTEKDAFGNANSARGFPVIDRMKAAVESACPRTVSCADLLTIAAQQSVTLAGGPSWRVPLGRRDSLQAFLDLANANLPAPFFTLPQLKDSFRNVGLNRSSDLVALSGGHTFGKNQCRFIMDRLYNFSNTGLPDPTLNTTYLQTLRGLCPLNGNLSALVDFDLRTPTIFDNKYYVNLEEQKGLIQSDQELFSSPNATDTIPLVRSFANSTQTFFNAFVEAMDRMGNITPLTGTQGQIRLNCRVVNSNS
Source text: as §3

cyt c heme, sequence (P99999 2-105 limits assumed, species assumed): as the sequence (P99999 2-105 limits assumed, species assumed) above

D-Arg-2′6′Dmt-Lys-Phe-NH2 [SS-31]
position of Soret band negative peak after red shift (cyt c heme): 440 nm
O2 consumption in state 3 respiration ([1]; glutamate/malate, succinate or TMPD/ascorbate, 400 μM ADP, FIG. 26): increased O2 consumption in state 3 respiration
electron flux, as measured by O2 consumption ([1]; peptide 10 μM or 100 μM, complex I, complex II substrate or TMPD/ascorbate, FIG. 26): can promote electron flux
electron flux, as measured by O2 consumption ([1]; peptide 100 μM, 0.5 mM succinate, 400 μM ADP, FIG. 14): can promote electron flux
electron transfer to oxygen (rates of respiration) ([1]; state 2, state 3 and state 4, different concentrations, FIG. 5): promoted electron transfer to oxygen without uncoupling mitochondria
rate of mitochondrial ATP synthesis (isolated mitochondria; ATP by HPLC 1 min after addition of 400 mM ADP, FIG. 6): dose-dependently increased the rate of ATP synthesis
ATP synthesis (isolated mitochondria; assayed by HPLC, FIG. 27): dose-dependently increased ATP synthesis
rate of ATP production (isolated mitochondria; mitochondria energized with low concentrations of succinate, FIG. 15): significant increase in the rate of ATP production
inhibitory effect of CL on kinetics of cytochrome c reduction (cytochrome c (with CL); 500 μM GSH or 50 μM ascorbate, FIG. 25B): dose-dependently overcame the inhibitory effect of CL
inhibitory action of CL on rate of cytochrome c reduction (cytochrome c (with CL); cytochrome c 20 μM, glutathione 500 μM, CL 100 μg/ml, peptide 20, 40 or 100 μM, FIG. 25A): dose-dependently prevented the inhibitory action of CL
kinetics of cytochrome c peroxidase activity (cytochrome c-CL complex; FIG. 29B): dose-dependently reduced the kinetics of cytochrome c peroxidase activity
rate of amplex red peroxidation (cytochrome c-CL complex; cytochrome c 2 μM, CL 25 μg/ml, 10 μM H2O2, amplex red 50 μM, FIG. 29A): decreased the rate of amplex red peroxidation
peroxidase activity in cytochrome c/CL complex (cytochrome c-CL complex; figure legend FIG. 29A-C, comparison at a fixed concentration of 10 μM (FIG. 29C)): preventing peroxidase activity in cytochrome c/CL complex
HRP activity [2]: had no effect on HRP activity
